In ChEMBL document CHEMBL1201862, “PubChem BioAssay data set” (2004):
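Interpolation was linear, between the two tested concentrations surrounding the appropriate level; five concentrations were tested over 48 hours in 96-well plates. At the GI50, growth is halved.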 Calls of active or inactive are those of the source. No stated cut-off is given here; in the data, active = GI50 up to about 1.1 µM and inactive = higher.

What was measured:
Experiment in all cases: NCI-60 cell line screen, 48 h
[1] = tested on: U-251
[2] = tested on: NCI-H226
[3] = tested on: NCI/ADR-RES
[4] = tested on: UACC-257
[5] = tested on: IGROV-1
[6] = tested on: UO-31
[7] = tested on: HCT-15
[8] = tested on: SN12C
[9] = tested on: 786-0
[10] = tested on: OVCAR-3
[11] = tested on: ACHN
[12] = tested on: SR
[13] = tested on: HT-29
[14] = tested on: SW-620
[15] = tested on: KM12
[16] = tested on: MDA-MB-231
[17] = tested on: K562
[18] = tested on: MOLT-4
[19] = tested on: COLO 205
[20] = tested on: OVCAR-8
[21] = tested on: T47D
[22] = tested on: SF-268
[23] = tested on: HOP-92
[24] = tested on: CAKI-1
[25] = tested on: SF-295
[26] = tested on: SNB-75
[27] = tested on: EKVX
[28] = tested on: RPMI-8226
[29] = tested on: SK-MEL-5
[30] = tested on: PC-3
[31] = tested on: HOP-62
[32] = tested on: UACC-62
[33] = tested on: M14
[34] = tested on: SK-OV-3
[35] = tested on: A549
[36] = tested on: OVCAR-5
[37] = tested on: Hs-578T
[38] = tested on: MCF7
[39] = tested on: MDA-MB-435
[40] = tested on: OVCAR-4
[41] = tested on: MDA-N
[42] = tested on: TK-10
[43] = tested on: NCI-H23
[44] = tested on: SNB-19
[45] = tested on: HL-60
[46] = tested on: CCRF-CEM
[47] = tested on: SK-MEL-2
[48] = tested on: SK-MEL-28
[49] = tested on: NCI-H522
[50] = tested on: A498
[51] = tested on: DU-145
[52] = tested on: NCI-H460
[53] = tested on: HCT-116
[54] = tested on: Malme-3M
[55] = tested on: LOX IMVI
[56] = tested on: RXF 393
[57] = tested on: SF-539
[58] = tested on: HCC 2998

## C=C(CCOC)CCC1CCCCC(=C)[C@H]1O (stereo partly specified)
[1]
  GI50: > 100 µM (inactive)
[2]
  GI50: > 100 µM (inactive)
[3]
  GI50: > 100 µM (inactive)
[4]
  GI50: > 100 µM (inactive)
[5]
  GI50: > 100 µM (inactive)
[6]
  GI50: > 100 µM (inactive)
[7]
  GI50: > 100 µM
[8]
  GI50: > 100 µM (inactive)
[9]
  GI50: > 100 µM (inactive)
[10]
  GI50: > 100 µM (inactive)
[11]
  GI50: > 100 µM (inactive)
[12]
  GI50: > 100 µM (inactive)
[13]
  GI50: > 100 µM (inactive)
[14]
  GI50: > 100 µM (inactive)
[15]
  GI50: > 100 µM (inactive)
[16]
  GI50: > 100 µM (inactive)
[17]
  GI50: > 100 µM (inactive)
[18]
  GI50: > 100 µM (inactive)
[19]
  GI50: > 100 µM (inactive)
[20]
  GI50: > 100 µM (inactive)
[21]
  GI50: > 100 µM (inactive)
[22]
  GI50: > 100 µM (inactive)
[23]
  GI50: > 100 µM (inactive)
[24]
  GI50: > 100 µM (inactive)
[25]
  GI50: > 100 µM (inactive)
[26]
  GI50: > 100 µM (inactive)
[27]
  GI50: > 100 µM (inactive)
[28]
  GI50: > 100 µM (inactive)
[29]
  GI50: > 100 µM (inactive)
[30]
  GI50: > 100 µM (inactive)
[31]
  GI50: > 100 µM (inactive)
[32]
  GI50: > 100 µM (inactive)
[33]
  GI50: > 100 µM (inactive)
[34]
  GI50: > 100 µM (inactive)
[35]
  GI50: > 100 µM (inactive)
[36]
  GI50: > 100 µM (inactive)
[37]
  GI50: > 100 µM (inactive)
[38]
  GI50: > 100 µM (inactive)
[39]
  GI50: > 100 µM (inactive)
[40]
  GI50: > 100 µM (inactive)
[41]
  GI50: > 100 µM (inactive)
[42]
  GI50: > 100 µM (inactive)
[43]
  GI50: > 100 µM (inactive)
[44]
  GI50: > 100 µM (inactive)
[45]
  GI50: > 100 µM (inactive)
[46]
  GI50: > 100 µM (inactive)
[47]
  GI50: > 100 µM (inactive)
[48]
  GI50: > 100 µM (inactive)
[49]
  GI50: > 100 µM (inactive)
[50]
  GI50: > 100 µM (inactive)
[51]
  GI50: > 100 µM (inactive)
[52]
  GI50: > 100 µM (inactive)
[53]
  GI50: > 100 µM (inactive)

## CCN(CC)C(=S)N/N=C(/C)c1cccc(/C(C)=N\NC(=S)N(CC)CC)n1
[1]
  GI50: 2.34 µM (inactive)
[2]
  GI50: 1.56 µM (inactive)
[3]
  GI50: 2 µM (inactive)
[4]
  GI50: 2.2 µM (inactive)
[5]
  GI50: 1.91 µM (inactive)
[6]
  GI50: 1.95 µM (inactive)
[54]
  GI50: 1.45 µM (inactive)
[7]
  GI50: 2.3 µM
[55]
  GI50: 1.81 µM (inactive)
[8]
  GI50: 2.79 µM (inactive)
[9]
  GI50: 1.45 µM (inactive)
[10]
  GI50: 1.35 µM (inactive)
[11]
  GI50: 0.678 µM (active)
[12]
  GI50: 0.32 µM (active)
[13]
  GI50: 3.52 µM (inactive)
[14]
  GI50: 0.951 µM (active)
[15]
  GI50: 0.26 µM (active)
[16]
  GI50: 1.76 µM (inactive)
[17]
  GI50: 2.67 µM (inactive)
[18]
  GI50: 1.66 µM (inactive)
[19]
  GI50: 1.58 µM (inactive)
[20]
  GI50: 1.44 µM (inactive)
[21]
  GI50: 4.88 µM (inactive)
[22]
  GI50: 0.334 µM (active)
[23]
  GI50: 1.46 µM (inactive)
[24]
  GI50: 1.29 µM (inactive)
[25]
  GI50: 1.66 µM (inactive)
[26]
  GI50: 3.21 µM (inactive)
[27]
  GI50: 2.64 µM (inactive)
[28]
  GI50: 2.08 µM (inactive)
[29]
  GI50: 2.13 µM (inactive)
[30]
  GI50: 3.15 µM (inactive)
[31]
  GI50: 1.41 µM (inactive)
[32]
  GI50: 2.62 µM (inactive)
[33]
  GI50: 1.38 µM (inactive)
[34]
  GI50: 1.96 µM (inactive)
[35]
  GI50: 2.86 µM (inactive)
[36]
  GI50: 3.31 µM (inactive)
[37]
  GI50: 5.64 µM (inactive)
[38]
  GI50: 2.04 µM (inactive)
[39]
  GI50: 3.35 µM (inactive)
[40]
  GI50: 1.25 µM (inactive)
[41]
  GI50: 6.37 µM (inactive)
[56]
  GI50: 2.3 µM (inactive)
[42]
  GI50: 1.27 µM (inactive)
[43]
  GI50: 3.44 µM (inactive)
[44]
  GI50: 4.39 µM (inactive)
[45]
  GI50: 0.055 µM (active)
[46]
  GI50: 0.389 µM (active)
[47]
  GI50: 4.68 µM (inactive)
[57]
  GI50: 1.37 µM (inactive)
[48]
  GI50: 1.21 µM (inactive)
[49]
  GI50: 3.23 µM (inactive)
[58]
  GI50: 3.9 µM (inactive)
[50]
  GI50: 1.89 µM (inactive)
[51]
  GI50: 0.414 µM (active)
[52]
  GI50: 1.53 µM (inactive)
[53]
  GI50: 2.8 µM (inactive)
